Reference: patent US20250115598A1 (Anaxis Pharma Pty Ltd, priority 2021, published 2025)
Like-named read-outs stand apart in the source and are kept apart here.

Tests used:
human RIPK1 = human RIPK1 (Homo sapiens (Human), UniProt Q13546); assay: KINOMEscan binding assay, human RIPK1; conditions: Table 21
How it was run: (§1)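 In this assay, compounds displace DNA- or phage-tagged kinase from an immobilized ligand, and eluted kinase is quantified by qPCR.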

U937 cells = assay: Counter screen: cell viability without the TSQ cocktail (off-target effect); parameters: species or system human
Protocol: (§2) • Cell Line ID: U937 human histiocytic leukemia cell line. • Cell Concentration (cells/well): Final cell density is 20000 cells per well. • Cell growth medium: HT-RPMI medium+7.4% Fetal Bovine Serum (FBS). Cells are cultured in Corning 150 cm^2 tissue culture flasks with vented caps at 37° C./5% CO2. • Incubation: Plates were incubated at 37° C./5% CO2 in a humidified incubator for 48 hours following addition of compounds and death stimuli (TSQ cocktail). • Compound concentration: 36 μM starting concentration, 1:3 dilution, 10 point • DMSO final concentration (% v/v): 0.3%. Compounds in TSQ Cocktail (T: TNF; S: Smac Mimetic; Q: Q-VD-OPh) and their Final Concentrations: • hTNF-Fc (100 ng/ml)—produced by standard procedures as shown in Bossen et al., J. Biol. Chem., 2006, 281(20), 13964-13971. • Compound A (500 nM)—Smac mimetic, Tetralogic and SYNthesis med chem • Q-VD-OPh (10 μM)—MP Biomedicals
(§3) The cellular assay was carried out according to the following steps: • 1. Each well was prepared by sequential addition of: • a. DMSO (control; columns 1-2 and 23-24) or compound in DMSO—addition was performed using acoustic transfer of nL volumes of stock compound to give final test concentrations of 36, 12, 4, 1.3, 0.44, 0.148, 0.049, 0.016, 0.005 and 0.002 μM. All wells were backfilled with DMSO to a final total volume in the well of 100 nL. • b. Following compound/DMSO addition in step (a), 40 μL of cell suspension (5×10^5 cells/mL) was added to provide a final cell concentration of 20,000 cells per well, and • c. Following cell addition in step (b), 10 μL of 5×TSQ cocktail (except to positive controls; columns 1 and 23) was added to each well. • 2. After 48 hours, plate was removed from the 37° C. incubator and equilibrated to room temperature for 45 minutes. • 3.15 μL of room temperature CellTitre-Glo2™ (Promega™) was added to each well. • 4. Shook plates for 2 minutes (˜600 rpm) and incubated at room temperature for 15 minutes to allow signal to stabilise. • 5. Read luminescence readout on a plate reader.
(§4) • Assay involving the TSQ cocktail (T: TNF; S: Smac mimetic; Q: Q-VD-OPh): TSQ treatment ensures that cells specifically undergo necroptotic cell death. TNF activates the TNF receptor, Smac mimetic directs the signal away from proinflammatory signaling and toward the RIPK1/RIPK3-mediated cell death pathways, and Q-VD-OPh ensures that the apoptotic response is blocked leaving only the programmed necrosis response. The compounds' activity (solution in DMSO) tested in this TSQ-induced assay was evaluated by determining the number of viable cells in culture by measuring the amount of ATP present as measured by CelltiterGlo. • Counter screen: In parallel, all compounds were tested for their ability to affect cell viability. The same U937 cells were treated with compound in DMSO without the TSQ cocktail. This counter screen enabled evaluation of off-target effects. In this case, cell viability was measured by CelltiterGlo.

[1] = tested on: U937 human histiocytic leukemia cell line; assay: Cellular assay: inhibition of TSQ induced necroptosis, CellTitre-Glo viability; conditions: U937 cells, 48 hours, TSQ cocktail, read-out: Inhibition of TSQ-induced necroptosis (IC50 cell-based assay)
Protocol: Cellular Assay: Screening Compounds for Inhibition of TSQ Induced Necroptosis, 384 Well Plate Format.
as §2, §3
Percent viability was calculated for each compound according to equation (2):
as §4

human RIPK3 = human RIPK3 (Homo sapiens (Human), UniProt Q9Y572); assay: KINOMEscan binding assay, human RIPK3; conditions: Table 21
Sequence of human RIPK3 (Q9Y572 whole entry): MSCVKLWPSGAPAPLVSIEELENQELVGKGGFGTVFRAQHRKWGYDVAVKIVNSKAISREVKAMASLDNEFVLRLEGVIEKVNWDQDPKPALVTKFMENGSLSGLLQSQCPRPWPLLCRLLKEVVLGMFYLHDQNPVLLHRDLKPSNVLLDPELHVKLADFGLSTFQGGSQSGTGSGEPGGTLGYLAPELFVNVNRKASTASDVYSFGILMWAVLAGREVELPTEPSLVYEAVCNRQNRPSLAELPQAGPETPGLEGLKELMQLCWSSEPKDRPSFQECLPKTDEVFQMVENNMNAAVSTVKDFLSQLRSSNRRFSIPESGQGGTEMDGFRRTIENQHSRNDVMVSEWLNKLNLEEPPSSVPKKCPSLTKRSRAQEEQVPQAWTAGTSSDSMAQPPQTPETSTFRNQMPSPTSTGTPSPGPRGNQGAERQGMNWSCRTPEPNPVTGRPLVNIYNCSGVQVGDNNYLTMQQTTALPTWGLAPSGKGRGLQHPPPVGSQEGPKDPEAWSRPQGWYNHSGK
How it was run: as §1

[2] = tested on: Immortalised Mouse Dermal Fibroblasts (MDFs); assay: Cellular assay: inhibition of TSI induced necroptosis, CellTitre-Glo viability; conditions: Mus musculus, Fibroblast; MDF, 3 hours TSI cocktail, Table 24; read-out: Inhibition of TSI-induced necroptosis (IC50 cell-based assay) in MDF
How it was run: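 Immortalised mouse dermal fibroblasts (2200 cells/well) pretreated 30 min with compound, 10-point 1:3 series from 36 μM, 0.3% DMSO. Then 3 h at 37° C. with TNF (100 ng/ml), Smac mimetic (500 nM) and IDN-6556 (10 μM). CellTiter-Glo luminescence normalised to DMSO (100%) and DMSO+TSI (0%); IC50 from 4-parameter logistic fit.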

human MLKL (full length) = human MLKL (full length) (Homo sapiens (Human), UniProt Q8NB16); assay: KINOMEscan binding assay, human MLKL (full length)
Sequence of human MLKL (full length) (Q8NB16 whole entry): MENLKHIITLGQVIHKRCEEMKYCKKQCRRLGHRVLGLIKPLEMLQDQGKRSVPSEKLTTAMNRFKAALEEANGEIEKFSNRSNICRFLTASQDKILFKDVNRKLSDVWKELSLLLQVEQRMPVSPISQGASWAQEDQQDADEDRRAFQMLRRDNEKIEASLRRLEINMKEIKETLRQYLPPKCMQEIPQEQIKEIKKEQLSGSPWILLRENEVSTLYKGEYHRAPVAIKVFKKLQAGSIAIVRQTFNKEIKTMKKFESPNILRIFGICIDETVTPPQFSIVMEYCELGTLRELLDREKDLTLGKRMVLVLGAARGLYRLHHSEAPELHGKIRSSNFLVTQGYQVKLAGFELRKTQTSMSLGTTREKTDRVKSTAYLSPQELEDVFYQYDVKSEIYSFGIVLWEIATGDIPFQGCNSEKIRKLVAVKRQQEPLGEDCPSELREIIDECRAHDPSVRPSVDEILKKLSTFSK
How it was run: as §1

[3] = Homo sapiens, U-937, Table 23, read-out: Off-target effect (IC50 cell-based assay)
[4] = KINOMEscan, Table 21, read-out: Human MLKL (full-length) (KD)
[5] = Table 23, read-out: Off-target effect (IC50 cell-based assay)
[6] = Homo sapiens, U-937, Table 26, read-out: Off-target effect (IC50 cell-based assay)
[7] = hMLKL, Table 25, read-out: MLKL (KD)

Sequence of human RIPK1 (Q13546 whole entry): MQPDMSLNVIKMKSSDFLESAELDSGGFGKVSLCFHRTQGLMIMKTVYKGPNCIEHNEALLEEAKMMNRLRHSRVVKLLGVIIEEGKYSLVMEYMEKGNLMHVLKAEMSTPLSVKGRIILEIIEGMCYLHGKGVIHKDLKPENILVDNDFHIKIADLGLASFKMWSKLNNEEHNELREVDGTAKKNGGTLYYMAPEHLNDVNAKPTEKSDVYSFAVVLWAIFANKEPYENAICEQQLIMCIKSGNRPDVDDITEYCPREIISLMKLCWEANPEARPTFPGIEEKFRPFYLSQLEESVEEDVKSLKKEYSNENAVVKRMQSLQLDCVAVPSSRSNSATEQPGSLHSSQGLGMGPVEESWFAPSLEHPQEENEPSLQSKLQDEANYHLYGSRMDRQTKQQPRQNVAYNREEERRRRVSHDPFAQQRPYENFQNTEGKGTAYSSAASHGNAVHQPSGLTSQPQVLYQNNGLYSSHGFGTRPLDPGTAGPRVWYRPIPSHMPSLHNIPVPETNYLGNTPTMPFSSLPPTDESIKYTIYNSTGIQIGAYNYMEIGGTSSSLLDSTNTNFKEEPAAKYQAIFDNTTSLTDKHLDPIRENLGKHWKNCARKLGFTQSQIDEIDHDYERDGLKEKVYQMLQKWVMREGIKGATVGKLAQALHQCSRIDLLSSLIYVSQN

Row | Structure (SMILES) | Kd (human RIPK1) [nM] | Kd (human RIPK3) [nM] | Kd (human MLKL (full length); [7]) [nM] | IC50 (U937 cells; [6]) [nM] | IC50 ([1]; Homo sapiens, U-937, Table 26) [nM] | further results
1 | C[C@H](Oc1cc(-c2nn(C)c3c(-c4cnn([C@@H]5CCN(C)C(C)(C)C5)c4)cnc(N)c23)ccc1NS(=O)(=O)C(F)F)c1ccc(F)cc1 (single isomer, unassigned) [Compound 154, N-(4-(4-amino-1-methyl-7-(1-((R*)-1,2,2-trimethylpiperidin-4-yl)-1H-pyrazol-4-yl)-1H-pyrazolo[4,3-c]pyridin-3-yl)-2-((S)-1-(4-fluorophenyl)ethoxy)phenyl)-1,1-difluoromethanesulfonamide] | > 10000 | > 10000 | – | – | – | IC50 (U937 cells; [3]): > 10000 nM; IC50 ([1]; Homo sapiens, U-937, Table 23): < 10 nM
2 | C[C@H](Oc1cc(-c2nn(C)c3c(-c4cnn(C5CCN(C)C(C)(C)C5)c4)cnc(N)c23)ccc1NS(=O)(=O)C(F)F)c1ccc(F)cc1 (single isomer, unassigned) [Compound 155, N-(4-(4-amino-1-methyl-7-(1-((S*)-1,2,2-trimethylpiperidin-4-yl)-1H-pyrazol-4-yl)-1H-pyrazolo[4,3-c]pyridin-3-yl)-2-((S)-1-(4-fluorophenyl)ethoxy)phenyl)-1,1-difluoromethanesulfonamide] | – | – | – | – | – | IC50 (U937 cells; [3]): > 10000 nM; IC50 ([1]; Homo sapiens, U-937, Table 23): < 10 nM; IC50 [2]: < 1000 nM
3 | CCS(=O)(=O)Nc1ccc(-c2nn(C)c3c(-c4ccncc4)cnc(N)c23)cc1OCc1ccc(F)cc1 [Compound 1, N-(4-(4-amino-1-methyl-7-(pyridin-4-yl)-1H-pyrazolo[4,3-c]pyridin-3-yl)-2-((4-fluorobenzyl)oxy)phe-nyl)ethanesulfonamide] | > 10000 | > 10000 | – | – | – | IC50 (U937 cells; [3]): > 10000 nM; IC50 ([1]; Homo sapiens, U-937, Table 23): 1000 to 10000 nM; Kd (human MLKL (full length); [4]): 1 to 100 nM
4 | C[C@H](Oc1cc(-c2nn(C)c3c(-c4ccc(N5CCNCC5)nc4)cnc(N)c23)ccc1NS(=O)(=O)C(F)F)c1ccc(F)cc1 [Compound 108] | > 10000 | > 10000 | – | – | – | IC50 (U937 cells; [5]): > 10000 nM; IC50 ([1]; Table 23): 10 to 1000 nM; Kd (human MLKL (full length); [4]): < 1 nM
5 | CNc1ncc(-n2cc(-c3cnc(N)c4c(-c5ccc(NS(=O)(=O)C(F)F)c(O[C@@H](C)c6ccc(F)cc6)c5)nn(C)c34)cn2)cn1 [Compound 138, (S)-N-(4-(4-amino-1-methyl-7-(1-(2-(methylamino)pyrimidin-5-yl)-1H-pyrazol-4-yl)-1H-pyrazolo[4,3-c]pyridin-3-yl)-2-(1-(4-fluorophenyl)ethoxy)phenyl)-1,1-difluoromethanesulfonamide] | > 10000 | > 10000 | – | – | – | IC50 (U937 cells; [5]): > 10000 nM; IC50 ([1]; Table 23): 10 to 1000 nM; Kd (human MLKL (full length); [4]): 1 to 100 nM

The next lines start with results.

Row | Kd (human RIPK1) [nM] | Kd (human RIPK3) [nM] | Kd (human MLKL (full length); [7]) [nM] | Structure (SMILES) | IC50 (U937 cells; [6]) [nM] | IC50 ([1]; Homo sapiens, U-937, Table 26) [nM] | further results
6 | – | – | 10 to 1000 | Cc1ncsc1-c1ccc(CNC(=O)[C@@H]2C[C@H](O)CN2C(=O)[C@@H](NC(=O)COCCOCCn2cc(-c3cnc(N)c4c(-c5ccc(NS(=O)(=O)C(F)F)c(O[C@@H](C)c6ccc(F)cc6)c5)nn(C)c34)cn2)C(C)(C)C)cc1 [Compound 1007, (2S,4S)-1-[(2S)-2-(2-{2-[2-(4-{4-amino-3-[4-(difluoromethanesulfonamido)-3-[(1S)-1-(4-fluorophenyl)ethoxy]phenyl]-1-methyl-1H-pyrazolo[4,3-c]pyridin-7-yl}-1H-pyrazol-1-yl)ethoxy]ethoxy}acetamido)-3,3-dimethylbutanoyl]-4-hydroxy-N-{[4-(4-methyl-1,3-thiazol-5-yl)phenyl]methyl}pyrrolidine-2-carboxamide] | > 10000 | < 1000 | –
7 | – | – | < 10 | Cc1ncsc1-c1ccc(CNC(=O)[C@@H]2C[C@@H](O)CN2C(=O)[C@@H](NC(=O)COCCN2CCC(n3cc(-c4cnc(N)c5c(-c6ccc(NS(=O)(=O)C(F)F)c(O[C@@H](C)c7ccc(F)cc7)c6)nn(C)c45)cn3)C2)C(C)(C)C)cc1 (stereo partly drawn) [Compound 1013, (2S,4R)-1-[(2S)-2-(2-{2-[3-(4-{4-amino-3-[4-(difluoromethanesulfonamido)-3-[(1S)-1-(4-fluorophenyl)ethoxy]phenyl]-1-methyl-1H-pyrazolo[4,3-c]pyridin-7-yl}-1H-pyrazol-1-yl)pyrrolidin-1-yl]ethoxy}acetamido)-3,3-dimethylbutanoyl]-4-hydroxy-N-{[4-(4-methyl-1,3-thiazol-5-yl)phenyl]methyl}pyrrolidine-2-carboxamide] | > 10000 | 1000 to 10000 | –
8 | – | – | 10 to 1000 | CCS(=O)(=O)Nc1ccc(-c2nn(C)c3c(-c4cnn(CCOCCOCC(=O)N[C@H](C(=O)N5C[C@H](O)C[C@H]5C(=O)NCc5ccc(-c6scnc6C)cc5)C(C)(C)C)c4)cnc(N)c23)cc1 [Compound 1019, (2S,4R)-1-[(2S)-2-{2-[2-(2-{4-[4-amino-3-(4-ethanesulfonamidophenyl)-1-methyl-1H-pyrazolo[4,3-c]pyridin-7-yl]-1H-pyrazol-1-yl}ethoxy)ethoxy]acetamido}-3,3-dimethylbutanoyl]-4-hydroxy-N-{[4-(4-methyl-1,3-thiazol-5-yl)phenyl]methyl}pyrrolidine-2-carboxamide] | > 10000 | 1000 to 10000 | –
9 | – | – | 10 to 1000 | CCS(=O)(=O)Nc1ccc(-c2nn(C)c3c(-c4cnn(CCCCCCC(=O)N[C@H](C(=O)N5C[C@H](O)C[C@H]5C(=O)NCc5ccc(-c6scnc6C)cc5)C(C)(C)C)c4)cnc(N)c23)cc1 [Compound 1020, (2S,4R)-1-[(2S)-2-(7-{4-[4-amino-3-(4-ethanesulfonamidophenyl)-1-methyl-1H-pyrazolo[4,3-c]pyridin-7-yl]-1H-pyrazol-1-yl}heptanamido)-3,3-dimethylbutanoyl]-4-hydroxy-N-{[4-(4-methyl-1,3-thiazol-5-yl)phenyl]methyl}pyrrolidine-2-carboxamide] | > 10000 | < 1000 | –
10 | – | – | < 10 | Cc1ncsc1-c1ccc(CNC(=O)[C@@H]2C[C@@H](O)CN2C(=O)[C@@H](NC(=O)COCCOCCn2cc(-c3cnc(N)c4c(-c5ccc(NS(=O)(=O)C(F)F)cc5)nn(C)c34)cn2)C(C)(C)C)cc1 [Compound 1021] | > 10000 | 1000 to 10000 | –
11 | – | – | 10 to 1000 | Cc1ncsc1-c1ccc(CNC(=O)[C@@H]2C[C@@H](O)CN2C(=O)[C@H](NC(=O)C2(F)CC2)C(C)(C)C)c(OCCCCCCCn2cc(-c3cnc(N)c4c(-c5ccc(NS(=O)(=O)C(F)F)c(O[C@@H](C)c6ccc(F)cc6)c5)nn(C)c34)cn2)c1 [Compound 1030, (2S,4R)—N-[(2-{[7-(4-{4-amino-3-[4-(difluoromethanesulfonamido)-3-[(1S)-1-(4-fluorophenyl)ethoxy]phenyl]-1-methyl-1H-pyrazolo[4,3-c]pyridin-7-yl}-1H-pyrazol-1-yl)heptyl]oxy}-4-(4-methyl-1,3-thiazol-5-yl)phenyl)methyl]-1-[(2R)-2-[(1-fluorocyclopropyl)formamido]-3,3-dimethylbutanoyl]-4-hydroxypyrrolidine-2-carboxamide] | > 10000 | < 1000 | –
